Reference: ChEMBL document CHEMBL1137236, “Synthesis and neuroprotective effects of serofendic acid analogues” (2006)

How the values were obtained:
Cortical neurone [1] = assay: Protective effect against L-glutamate-induced neurotoxicity in rat primary cortical neurons at 10 uM by trypan blue exclusion method; format: functional
Cortical neurone [2] = assay: Protective effect against L-glutamate-induced neurotoxicity in rat primary cortical neurons at 1 uM by trypan blue exclusion method; format: functional

Structure (SMILES)	Activity (Cortical neurone [1]) [%]	Activity (Cortical neurone [2]) [%]
C[S+]([O-])CC1C[C@]23CC[C@H]1C[C@H]2[C@]1(C)CCC[C@@](C)(C(=O)O)[C@H]1CC3 (stereo partly specified)	18.1	
CSC[C@H]1[C@H]2CC[C@@]3(CC[C@H]4[C@@](C)(CCC[C@@]4(C)C(=O)O)[C@@H]3C2)[C@@H]1O	39.8	
C[S+]([O-])C[C@H]1[C@H]2CC[C@@]3(CC[C@@H]4[C@](C)(CO)CCC[C@@]4(C)[C@@H]3C2)[C@@H]1O (stereo partly specified)	7.79	
C[S+]([O-])C[C@H]1[C@H]2CC[C@@]3(CC[C@@H]4C(C)(C)CCC[C@@]4(C)[C@@H]3C2)[C@@H]1O (stereo partly specified)	13.1	
C[S+]([O-])CC1=C[C@]23CC[C@H]1C[C@H]2[C@]1(C)CCC[C@@](C)(C(=O)O)[C@H]1CC3 (stereo partly specified)	15.6	
COC(=O)[C@]1(C)CCC[C@@]2(C)[C@@H]3C[C@@H]4CC[C@@]3(CC[C@@H]21)[C@H](O)[C@H]4C[S+](C)[O-] (stereo partly specified)	20.5	
C[S+]([O-])C[C@@H]1C(=O)[C@]23CC[C@H]1C[C@H]2[C@]1(C)CCC[C@@](C)(C(=O)O)[C@H]1CC3 (stereo partly specified)	41.5	
C[S+]([O-])C[C@@H]1[C@H]2CC[C@@]3(CC[C@H]4[C@@](C)(CCC[C@@]4(C)C(=O)O)[C@@H]3C2)[C@H]1O (stereo partly specified)	33.7	
C[C@@]12CCC[C@@](C)(C(=O)O)[C@H]1CC[C@@]13CC[C@@H](C[C@@H]21)[C@H](CS(C)(=O)=O)[C@H]3O	20	
C[C@]12N[C@H](Cc3ccccc31)c1ccccc12.O=C(O)/C=C\C(=O)O [DIZOCILPINE MALEATE]		80.7
C[S+]([O-])C[C@H]1[C@H]2CC[C@@]3(CC[C@H]4[C@@](C)(CCC[C@@]4(C)C(=O)O)[C@@H]3C2)[C@@H]1O (stereo partly specified) [SEROFENDIC ACID]	45.3	
